Results: patent US6716582B2 (priority 2000, dated 2004)
Several values for one entry are separate records, joined by “and”; a condition that tells them apart may be missing. Identical values can stand only once.

Columns and labels:
Type in all cases: cell-based, E. coli
yebF-luxCDABE fusion = assay: inverted yebF-luxCDABE fusion induction by DNA damaging agents; details: inverted yebF-lux transformants; nalidixic acid
Text: In this case, a divergent promoter to the purT gene was present in the chromosomal fragment and strains containing the backward yebF fusion produced light. Following isolation of plasmid DNA, XmaI digestion that releases the insert DNA from the vector, religation and transformation, 10% of the transformants produced light. […] The orientation of the inserted segment to yield a fusion of yebF to the luxCDABE operon was confirmed by DNA sequence analysis.
To test inverting of a chromosomal segment in a plasmid containing divergent promoters, the backward fusion to yebF was chosen. […] In this case, a divergent promoter to the purT gene was present in the chromosomal fragment and strains containing the backward yebF fusion produced light. Following XmaI digestion, religation and transformation, 10% of the transformants produced light. […] This was verified by DNA sequence analysis. Thus, inverting chromosomal segments containing divergent promoters is possible and is facilitated if the two promoters can be distinguished by their biological activity.

[1] = tested on: SOS regulon luxCDABE gene fusions; assay: SOS regulon lux fusions: stress response in liquid LB; details: each of the eight SOS fusion strains; at least three concentrations
Protocol: To test the stress responses, one or two single colonies of each selected strain were used to inoculate 5.0 ml of LB medium containing 150 μg/ml of ampicillin. These cultures were grown overnight at 37° C. then diluted by adding 50 μl or 100 μl of the overnight culture into 10.0 ml of fresh LB medium (without ampicillin) and grown with agitation at 37° C. until the culture was in exponential phase with readings on a Klett-Summerson colorimeter containing the red filter of between 10 and 40. These actively growing cultures were immediately used to initiate a stress response experiment by adding 50 μl of cultures to 50 μl of LB medium containing various concentrations of chemical in the wells a 96 well luminometer plate. This division of the actively growing culture at the time of chemical addition ensured identical populations were present when the stress was imposed. Light production was measured in a Dynex ML3000 luminometer at 37° C. The dimensionless units of light production, relative light units (RLU), are obtained by comparison with the light reading from an internal light-emitting diode.
The ability of these promoter-luxCDABE fusions to report activation of the SOS stress response was tested using nalidixic acid, a known, potent chemical inducer. The final concentrations of nalidixic acid were 1, 5, 25, and 125 μg/ml for all but strain DPD2293, which was tested at 80, 40, 20, 10, 5, 2.5, and 1.25 μg/ml.
Specificity of responses was tested by measuring the effect of ethanol on these SOS regulon gene fusions.

[2] = tested on: LuxArray 1.0 luxCDABE gene fusions; assay: LuxArray 1.0 solid phase nalidixic acid perturbation; details: for Solid expt NA/LB: NA 5 μg/ml; for fold upregulation, nalidixic acid treated to untreated: solid LuxArray, 5 μg/ml, 4 hours
Protocol: The E. coli strains were grown overnight at 37° C. in 40 μl LB medium supplemented with 100 μg/ml ampicillin in a set of sixteen 96-well dishes. These cultures were designated “printing plates” and were used as the cell source to manufacture the arrays. Porous membranes (Biodyne B, Nunc) were sterilized with UV illumination for 10 min then placed in contact with pre-warmed of solid LB growth media in a culture dish (OmniTray, Nunc). Printing of 4×4 subarrays was accomplished using a BioMek 2000 (Beckman Coulter) equipped with a High Density Replication Tool (HDRT). […] After sterilization, the pins are air-dried prior to the next transfer. The E. coli strains in the LuxArray were printed onto an approximately 8×12 cm membrane in two sets of triplicates.
Arrays were printed from fresh overnight cultures onto membranes on plates containing LB media. After 6 hr of growth at 37° C. membranes were moved to pre-warmed plates containing either LB media or LB media supplemented with 5 μg/ml nalidixic acid then replaced at 37° C. to continue growing. Images were collected for each array every two hours from 0-8 hr after relocation using a cooled CCD camera (Fluor Chem 8000: f0.85 lens, 2 min exposure, AlphaInnotech).
Spot intensity of each image was determined using ArrayVision™ (Imaging Research, Toronto, Canada) and the resultant pixel density measurements imported into a template with identifiers for each spot. The average signal for each of the triplicate spots was calculated. The background signal, which results from cross illumination of neighboring spots, was calculated by finding the median of the 24 spots containing a strain with the parental plasmid on each of the triplicate arrays and the calculating the average of the three medians. This background signal was calculated at each of the time points and subtracted from each measurement at the corresponding time point. All negative numbers were converted to zero.
Data normalization to account for inhibition of growth by nalidixic acid was accomplished by finding the sum of the averaged signals of each spot in the array for each treatment at each time point. A normalization factor (NF) was calculated as follows:
NF=Total array signal (time zero, LB control)/Total array signal (time x, condition y)
Each measurement was multiplied by NF to yield a normalized signal. Ratios the nalidixic acid treated spot to the corresponding control spot were calculated using the normalized data.
The ratios of the normalized data were compared for each of the […] spots resulting from independent cultures in the array. […] Twelve gene fusions were selected by these criteria (Table 15).

Which induction of bioluminescence (yebF-luxCDABE fusion) does the source give for CCn1cc(C(=O)O)c(=O)c2ccc(C)nc21 [Nalidixic acid, nalidixic acid] here?
The induction of bioluminescence was “highly induced”.

And the “bioluminescence vs untreated control” value [1]?
The value was “increased bioluminescence”.

And the “Solid expt NA/LB” value ([2]; dinG ybiB lux-a.pk0024.f5, t = 2 hr, duplicate spots)?
The value was 2.5 and 3.4.

And the “Solid expt NA/LB” value ([2]; dinG ybiB lux-a.pk0024.f5, t = 4 hr)?
Its value is 3.7 and 4.2.

What about the “Solid expt NA/LB” value ([2]; dinG ybiB lux-a.pk0024.f5, t = 6 hr) of the same compound?
Its value is 3.5 and 3.1.

What about the “Solid expt NA/LB” value ([2]; dinG ybiB lux-a.pk0024.f5, t = 8 hr) of the same compound?
The value was 2.9 and 2.6.

What about the “Solid expt NA/LB” value ([2]; dinP lux-a.pk055.a3, t = 2 hr) of the same compound?
Its value is 3.1 and 5.5.

And the “Solid expt NA/LB” value ([2]; dinP lux-a.pk055.a3, t = 6 hr)?
The value was 4.2 and 8.1.

And the “Solid expt NA/LB” value ([2]; frvR frvX frvB frvA lux-a.pk046.e6, t = 2 hr)?
The value was 2.8 and 2.1.

What about the “Solid expt NA/LB” value ([2]; frvR frvX frvB frvA lux-a.pk046.e6, t = 4 hr) of the same compound?
The value was 2.3.

And the “Solid expt NA/LB” value ([2]; lpxA lpxB rnhB dnaE lux-a.pk061.c3, t = 2 hr)?
The value was 3.5 and 2.7.

And the “Solid expt NA/LB” value ([2]; lpxA lpxB rnhB dnaE lux-a.pk061.c3, t = 4 hr)?
The value was 3.1 and 3.5.

And the “Solid expt NA/LB” value ([2]; lpxA lpxB rnhB dnaE lux-a.pk061.c3, t = 6 hr)?
The value was 2.8 and 3.0.

What about the “Solid expt NA/LB” value ([2]; lpxA lpxB rnhB dnaE lux-a.pk061.c3, t = 8 hr) of the same compound?
The value was 1.7 and 1.9.

What about the “Solid expt NA/LB” value ([2]; lux-a.pk0015.d6, t = 2 hr) of the same compound?
Its value is 2.3 and 2.2.

And the “Solid expt NA/LB” value ([2]; lux-a.pk0015.d6, t = 4 hr)?
Its value is 6.4 and 4.1.

What about the “Solid expt NA/LB” value ([2]; lux-a.pk0015.d6, t = 6 hr) of the same compound?
Its value is 2.7 and 1.9.

And the “Solid expt NA/LB” value ([2]; lux-a.pk0015.d6, t = 8 hr)?
Its value is 0.6 and 0.8.

And the “Solid expt NA/LB” value ([2]; lux-a.pk0019.g1, t = 2 hr)?
Its value is 2.5 and 4.4.

And the “Solid expt NA/LB” value ([2]; lux-a.pk0019.g1, t = 4 hr)?
Its value is 7.7 and 8.2.

And the “Solid expt NA/LB” value ([2]; lux-a.pk0019.g1, t = 6 hr)?
The value was 9.7 and 15.5.

And the “Solid expt NA/LB” value ([2]; lux-a.pk0019.g1, t = 8 hr)?
The value was 7.1 and 10.2.

And the “Solid expt NA/LB” value ([2]; lux-a.pk033.c5, t = 2 hr)?
Its value is 3.7 and 2.1.

What about the “Solid expt NA/LB” value ([2]; lux-a.pk033.c5, t = 4 hr) of the same compound?
The value was 4.3 and 3.1.

And the “Solid expt NA/LB” value ([2]; lux-a.pk033.c5, t = 6 hr)?
Its value is 3.2 and 3.3.

And the “Solid expt NA/LB” value ([2]; lux-a.pk033.c5, t = 8 hr)?
Its value is 2.6 and 2.5.

And the “Solid expt NA/LB” value ([2]; oraA lux-a.pk058.f5, t = 2 hr)?
Its value is 5.1 and 4.7.

And the “Solid expt NA/LB” value ([2]; oraA lux-a.pk058.f5, t = 4 hr)?
Its value is 7.9 and 7.7.

What about the “Solid expt NA/LB” value ([2]; oraA lux-a.pk058.f5, t = 6 hr) of the same compound?
The value was 5.9 and 5.6.

And the “Solid expt NA/LB” value ([2]; oraA lux-a.pk058.f5, t = 8 hr)?
The value was 3.9 and 3.8.

And the “fold upregulation, nalidixic acid treated to untreated” value ([2]; ruvA-lux, duplicate spots)?
The value was 1.7 fold and 2.1 fold.

What about the “Solid expt NA/LB” value ([2]; uvrA lux-a.pk0001.b6, t = 2 hr) of the same compound?
Its value is 2.5 and 2.9.

What about the “Solid expt NA/LB” value ([2]; uvrA lux-a.pk0001.b6, t = 4 hr) of the same compound?
The value was 2.3 and 2.4.

What about the “Solid expt NA/LB” value ([2]; uvrA lux-a.pk0001.b6, t = 6 hr) of the same compound?
The value was 1.6 and 1.1.

What about the “Solid expt NA/LB” value ([2]; uvrA lux-a.pk0001.b6, t = 8 hr) of the same compound?
The value was 1.0 and 0.6.

What about the “fold upregulation, nalidixic acid treated to untreated” value ([2]; uvrD-lux, duplicate spots) of the same compound?
Its value is 1.6 fold and 1.9 fold.

What about the “Solid expt NA/LB” value ([2]; yaaF lux-a.pk031.e7, t = 2 hr) of the same compound?
Its value is 2.1 and 2.0.

And the “Solid expt NA/LB” value ([2]; yaaF lux-a.pk031.e7, t = 4 hr)?
The value was 2.0 and 2.1.

And the “Solid expt NA/LB” value ([2]; yaaF lux-a.pk031.e7, t = 6 hr)?
The value was 1.3 and 1.8.

And the “Solid expt NA/LB” value ([2]; yaaF lux-a.pk031.e7, t = 8 hr)?
Its value is 1.0 and 1.5.

What about the “Solid expt NA/LB” value ([2]; yfhJ fdx hscA yfhE lux-a.pk0019.g2, t = 2 hr) of the same compound?
The value was 2.1.

What about the “Solid expt NA/LB” value ([2]; yfhJ fdx hscA yfhE lux-a.pk0019.g2, t = 4 hr) of the same compound?
The value was 2.0 and 2.2.

And the “Solid expt NA/LB” value ([2]; yfhJ fdx hscA yfhE lux-a.pk0019.g2, t = 6 hr)?
Its value is 1.7 and 1.5.

What about the “Solid expt NA/LB” value ([2]; yfhJ fdx hscA yfhE lux-a.pk0019.g2, t = 8 hr) of the same compound?
Its value is 1.4 and 1.3.

And the “Solid expt NA/LB” value ([2]; yigN lux-a.pk046.f11, t = 4 hr)?
Its value is 2.5 and 4.3.
